Measurements reported in paper PMC10974743, “Design, Synthesis, and Biological Evaluation of Novel Phenoxy Acetic Acid Derivatives as Selective COX-2 Inhibitors Coupled with Comprehensive Bio-Pharmacological Inquiry, Histopathological Profiling, and Toxicological Scrutiny” (Molecules, 2024).
Entries after “also recorded” stand apart in the source; their conditions may differ. Like-named read-outs stand apart in the source and are kept apart here. Marks after values point to notes of the source that are not given here.

What was measured:
TNF-α = TNF-α content of paw exudate by ELISA, carrageenan paw edema model; type: in vivo, Sprague Dawley rats; details: vs carrageenan group
Procedure: (§1) ELISA assessment assays were conducted as cited (Supplementary Materials, page 53).
(§2) In-vivo anti-inflammatory activity […]
(§3) cervical dislocation. […] The percentage
(§4) Weight of the left paw] ×100.
(§5) Assessment of inflammatory biomarkers using ELISA […]
(§6) content, using enzyme -linked immunosorbent assay (ELISA). The ELISA kits were purchased from CLOUD -CLONE CORP (CCC, USA) (Cat# SEA133Ra) and MyBioSource company (British Columbia, Canada) (Cat# MBS730592) respectively, and the assays were performed following the manufacturer' s instructions. Additionally, the protein content of the exudates was determined using the Bradford method.

PGE2 = PGE2 content of paw exudate by ELISA, carrageenan paw edema model; type: in vivo, Sprague Dawley rats; details: vs carrageenan group
Procedure: as §1, §2, §3, §4, §5, §6

[1] = tested on: nociceptive responses on hot plate; assay: Hot plate latency test (analgesic activity); type: in vivo, rats; details: for Hot plate latency period: plate 50 °C, mean ± SD, n = 6
Procedure: The hot plate latency test was performed according to the following procedures (Supplementary Materials, page 54). […]
In summary, thirty rats
The normal control group received 1% CMC, while the remaining groups were administered their respective reference or test compounds. Each rat was gently positioned on a heated plate set at 50 ◦C. The latency period for nociceptive responses, such as paw licking or jumping off the hot plate, was recorded at 30-, 60-, 90-, and 120 minutes post-administration of the reference drugs, test […]

[2] = tested on: paw tissue, carrageenan paw edema model; assay: Histopathological examination of paws, inflammatory cell infiltration score; type: in vivo, rats; details: for Paw histopathological finding: H&E staining, carrageenan paw edema
Procedure: The histopathological assessments were performed according to the following procedures (Supplementary Materials, page 54). […]
Histopathological examination
Thirty-six rats were separated into six groups of six rats each for histological assessment […]
groupings consisted of a control group, a carrageenan group, two groups for the reference drugs […]
protocols that were utilized in the in-vivo anti-inflammatory activity test were used. After a duration of 5 hours, the animals were euthanized, and their left paws were amputated. The paws were preserved in 10% neutral buffered formalin, trimmed, washed, dehydrated in increasing concentrations of ethyl alcohol, clarified in xylene, and ultimately embedded in paraffin. They were then sliced into 4-6µ thick slices, stained with Hematoxylin and Eosin, and examined under a light microscope. A scoring system was used to evaluate the degree of inflammation, dividing it into six categories ranging from 0 indicating no inflammation to 5 indicating severe inflammation.
Each score corresponded to a certain level of inflammation: 0 for no inflammation, 1 for mild inflammation, 2 for mild to moderate inflammation, 3 for moderate inflammation, 4 for moderate to severe inflammation, and 5 for severe inflammation.

[3] = Assessment of liver and kidney function (serum ALT, AST, creatinine, urea); type: in vivo, rats; design: Urea: unit not given here; details: mean ± SD; for Creatinine: n = 6, in mg/dL (unit assumed)
Procedure: These assessments were conducted following the manufacturer’s instructions (Supplementary Materials, page 55).
In-vivo anti-inflammatory activity
as §3, §4
Assessment of inflammatory biomarkers using ELISA

[4] = tested on: carrageenan-induced paw edema; assay: Carrageenan paw edema test (paw thickness, paw weight); details: for Paw thickness difference: oral; for Paw thickness difference / Paw Weight Increase: mean ± SD, n = 6; for Paw Weight Increase: right vs left paw, after 5 h
Procedure: The carrageenan paw edema test was conducted following established procedures as detailed (Supplementary Materials, page 53).
The carrageenan paw edema test was conducted following established procedures. In summary, seventy-two rats were randomly assigned to twelve groups, each comprising six rats.
These groups included normal controls, carrageenan controls (both receiving the vehicle; 1%
Acute inflammation was induced in the right hind paws of all rats one hour after oral administration of the respective compounds or vehicle. This was achieved by injecting a freshly prepared 0.1 mL carrageenan suspension (1% in normal saline) subplantarly into the right hind paw, except for the normal control group, which received a saline injection. Paw thickness was measured hourly (Ct) until the fifth hour (C5) post-carrageenan injection (C0). The hourly increase in paw thickness (paw thickness difference) was calculated by subtracting the initial measurement (C0) from the thickness at each hour (Ct), and the results were presented as the mean increase in paw thickness (mm). To evaluate anti-inflammatory effects, the percentage of inhibition for each standard and test compound was determined using the formula: percentage of inhibition (%) = [(Paw thickness difference of carrageenan group - Paw thickness difference of treated)/ Paw thickness difference of carrageenan group] × 100. […] The paws were then excised and weighed (both left and right). The percentage of weight increase between the left and right paws of each animal was calculated using the equation: Percentage of weight increase = [(Weight of the right paw - Weight of the left paw) / Weight of the left paw] ×100.

gastric mucosa = assay: Evaluation of ulcerogenic effects (macroscopic scores and gastric histopathology); details: for Gastric mucosa histopathological finding: H&E staining; for Ulcer Number Score / Ulcer Severity Score: mean ± SD; for Ulcer Number Score: n = 6; for Ulcer Severity Score: n = 6, scale 0 to 5
Procedure: The assessment of ulcerogenic effects was conducted following established procedures [42, 57]
Following the experimental period, the animals were euthanized using pentobarbital sodium (100 mg/kg), and blood was collected via jugular vein exsanguination for later evaluation of liver and kidney function, and subsequently sacrificed by cervical dislocation. […] Following this, the animals' stomachs were removed, inflated, and opened along the greater curvature to evaluate ulcerogenic effects.
B: Ulcer lesion severity scoring system
2.5 More than 10 small ulcers
3 1 marked ulcer plus 0 to 4 small ulcers
3.5 1 marked ulcer plus 5 or more small ulcers
4 2 marked ulcers plus 0 to 4 small ulcers
4.5 2 marked ulcers plus 5 or more small ulcers
5 3 or more marked ulcers
The statistical analysis of the data was conducted using GraphPad Prism 9.5.1 Demo
(GraphPad Software, San Diego, CA). One -way analysis of variance (ANOVA) was utilized to
evaluate differences among the various groups, except for paw edema volume, which un derwent
analysis using two -way ANOVA. Post -hoc analysis was performed using Tukey's multiple
significance set at P < 0.05

ovine COX-1 = target: T1, ovine COX-1 (Ovis aries, UniProt P05979); assay: In vitro COX-1 inhibition assay (Cayman colorimetric COX inhibitor screening kit)
T1 sequence (P05979 25-600): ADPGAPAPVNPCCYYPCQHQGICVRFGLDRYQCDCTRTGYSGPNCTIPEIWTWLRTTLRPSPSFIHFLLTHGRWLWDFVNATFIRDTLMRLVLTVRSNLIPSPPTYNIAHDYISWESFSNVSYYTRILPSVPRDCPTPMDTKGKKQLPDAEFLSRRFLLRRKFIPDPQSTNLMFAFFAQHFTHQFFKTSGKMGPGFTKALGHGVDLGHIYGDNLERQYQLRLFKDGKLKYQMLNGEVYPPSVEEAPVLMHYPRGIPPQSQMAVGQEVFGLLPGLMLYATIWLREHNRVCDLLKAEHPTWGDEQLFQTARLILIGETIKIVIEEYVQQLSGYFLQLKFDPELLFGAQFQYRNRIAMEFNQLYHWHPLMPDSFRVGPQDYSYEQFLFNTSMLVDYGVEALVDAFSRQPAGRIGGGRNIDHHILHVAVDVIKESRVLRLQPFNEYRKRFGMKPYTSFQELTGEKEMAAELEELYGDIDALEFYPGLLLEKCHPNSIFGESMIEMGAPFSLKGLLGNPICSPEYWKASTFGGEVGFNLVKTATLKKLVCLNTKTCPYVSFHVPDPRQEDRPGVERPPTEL
Procedure: (§7) The in vitro enzyme assays were performed at the Biochemistry Department, Cairo
(§8) General Hospital, Egypt. Cayman® colorimetric COX (ovine) inhibitor screening assay kit (Item
(§9) enzymes in presence of all newly compounds. Generally, this kit is dependent on the reductive
(§10) reaction of COX. A specific antibody binds to PGH2 produced by COX and is further quantified
(§11) by the ELISA technique as previously reported. After that, the selectivity index (SI) was calculated
as the following equation:
𝐒𝐞𝐥𝐞𝐜𝐭𝐢𝐯𝐢𝐭𝐲 𝐢𝐧𝐝𝐞𝐱 (𝐒𝐈) = 𝐈𝐂₅₀𝐨𝐟 𝐂𝐎𝐗 − 𝟏

human COX-2 = target: T2, human COX-2 (Homo sapiens, UniProt P35354); assay: In vitro COX-2 inhibition assay (Cayman colorimetric COX inhibitor screening kit); details: for SI (COX-2 selectivity index): COX-1 (IC50)/COX-2 (IC50); for IC50: COX-2 IC50, mean ± SEM, n = 3
T2 sequence (P35354 18-604): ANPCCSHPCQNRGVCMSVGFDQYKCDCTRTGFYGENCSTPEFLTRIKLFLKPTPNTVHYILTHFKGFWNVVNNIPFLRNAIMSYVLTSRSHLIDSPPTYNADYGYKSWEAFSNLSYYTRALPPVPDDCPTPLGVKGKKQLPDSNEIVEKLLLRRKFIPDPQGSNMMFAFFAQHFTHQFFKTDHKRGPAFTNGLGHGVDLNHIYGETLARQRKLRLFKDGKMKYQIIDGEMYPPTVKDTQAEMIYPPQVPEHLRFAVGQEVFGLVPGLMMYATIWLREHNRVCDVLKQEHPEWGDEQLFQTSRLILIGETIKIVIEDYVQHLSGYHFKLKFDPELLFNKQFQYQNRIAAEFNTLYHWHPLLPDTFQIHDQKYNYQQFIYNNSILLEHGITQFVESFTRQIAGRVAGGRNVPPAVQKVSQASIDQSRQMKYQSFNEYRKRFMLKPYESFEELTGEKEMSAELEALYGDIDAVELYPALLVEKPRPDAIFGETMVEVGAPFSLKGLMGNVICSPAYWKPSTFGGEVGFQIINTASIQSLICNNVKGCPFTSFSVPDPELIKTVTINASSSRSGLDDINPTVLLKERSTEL
Procedure: as §7, §8, §9, §10, §11
as the following equation:
𝐒𝐞𝐥𝐞𝐜𝐭𝐢𝐯𝐢𝐭𝐲 𝐢𝐧𝐝𝐞𝐱 (𝐒𝐈) = 𝐈𝐂₅₀𝐨𝐟 𝐂𝐎𝐗 − 𝟏

COX-2 = details: cited from earlier work

## Cc1ccc(-c2cc(C(F)(F)F)nn2-c2ccc(S(N)(=O)=O)cc2)cc1 [Celecoxib, celecoxib, reference compound]
TNF-α
  Reduction of TNF-α exudate content: 63.52%
PGE2
  Reduction of PGE2 exudate content: 60.16%
[1]; 30 min post-administration
  Hot plate latency period: 8.39 ± 0.22 ^a
[1]; 60 min post-administration
  Hot plate latency period: 9.95 ± 0.23 ^a
[1]; 90 min post-administration
  Hot plate latency period: 11.63 ± 0.60 ^a
[1]; 120 min mark
  Increase in latency period: 46.70%
[1]; 120 min post-administration
  Hot plate latency period: 13.88 ± 0.41 ^a
[2]
  Paw histopathological finding: dermal infiltration by high number of inflammatory cells mainly neutrophils and lymphocytes; also recorded: significant dermal infiltration by a large quantity of inflammatory cells
[3]; n = 6
  ALT: 92.94 ± 5.00 IU/L
  AST: 101.23 ± 10.04 IU/L
  Urea: 26.28 ± 3.11
[3]
  Creatinine: 0.73 ± 0.03
[4]; 1st h after carrageenan
  Paw thickness difference: 1.4 ± 0.38 mm
[4]; 1st h, vs carrageenan group
  Percentage of inhibition of paw thickness: 29.31%
[4]; 2nd h after carrageenan
  Paw thickness difference: 2.36 ± 0.51 mm
[4]; 2nd h, vs carrageenan group
  Percentage of inhibition of paw thickness: 28.34%
[4]; 3rd h after carrageenan
  Paw thickness difference: 2.83 ± 0.43 mm
[4]; 3rd h, vs carrageenan group
  Percentage of inhibition of paw thickness: 33%
[4]; 4th h after carrageenan
  Paw thickness difference: 3.01 ± 0.57 mm
[4]; 4th h, vs carrageenan group
  Percentage of inhibition of paw thickness: 40.39%
[4]; 5th h after carrageenan
  Paw thickness difference: 3.10 ± 0.23 mm
[4]; 5th h, vs carrageenan group
  Percentage of inhibition of paw thickness: 41.65%
[4]
  Paw Weight Increase: 29.95 ± 2.20 ^ab %
Gastric mucosa
  Gastric mucosa histopathological finding: ulcer formation with eroded gastric mucosa; also recorded: developed ulcers with degraded gastric mucosa
  Ulcer Number Score: 1.00 ± 0.63
  Ulcer Severity Score: 0.75 ± 0.52

## O=C(O)COc1ccc(Br)cc1C=NNC(=O)c1ccc(Cl)cc1 [Compound 5f, 2-(4-Bromo-2-((2-(4-chlorobenzoyl)hydrazineylidene)methyl)phenoxy)acetic acid]
TNF-α
  Reduction of TNF-α exudate content: 61.04%
PGE2
  Reduction of PGE2 exudate content: 60.58%
[1]; 30 min mark
  Increase in latency period: 39.43%
[1]; 30 min post-administration
  Hot plate latency period: 8.99 ± 0.38 ^abc
[1]; 60 min post-administration
  Hot plate latency period: 10.59 ± 0.3 ^abc
[1]; 90 min post-administration
  Hot plate latency period: 12.48 ± 0.65 ^ab
[1]; 120 min mark
  Increase in latency period: 49.50%
[1]; 120 min post-administration
  Hot plate latency period: 14.15 ± 0.38 ^a
[2]
  Paw histopathological finding: infiltration by a few numbers of inflammatory cells mainly eosinophils and lymphocytes; also recorded: dermal edema with limited infiltration of inflammatory cells
[2]; vs carrageenan group, paw, 5 hours
  Reduction in inflammatory cell infiltration score: 70.37%
[3]; n = 6
  ALT: 92.76 ± 3.83 IU/L
  AST: 93.69 ± 5.26 IU/L
  AST/ALT: 1.01 ± 0.08
  Urea: 26.37 ± 2.48
[3]
  Creatinine: 0.67 ± 0.04
[4]; 1st h after carrageenan
  Paw thickness difference: 0.83 ± 0.15 mm
[4]; 1st h, vs carrageenan group
  Percentage of inhibition of paw thickness: 58.11%
[4]; 2nd h after carrageenan
  Paw thickness difference: 1.65 ± 0.29 mm
[4]; 2nd h, vs carrageenan group
  Percentage of inhibition of paw thickness: 49.85%
[4]; 3rd h after carrageenan
  Paw thickness difference: 2.32 ± 0.17 mm
[4]; 3rd h, vs carrageenan group
  Percentage of inhibition of paw thickness: 45.05%
[4]; 4th h after carrageenan
  Paw thickness difference: 2.68 ± 0.12 mm
[4]; 4th h, vs carrageenan group
  Percentage of inhibition of paw thickness: 46.9%
[4]; 5th h after carrageenan
  Paw thickness difference: 2.84 ± 0.13 mm
[4]
  Paw Weight Increase: 29.85 ± 3.88 ^ab %
[4]; vs carrageenan group
  Inhibition of percentage of paw weight increase: 68.26%
Ovine COX-1
  IC50: 8000 ± 200 nM
Human COX-2
  SI (COX-2 selectivity index): 133.34
  IC50: 60 ± 10 nM
Gastric mucosa
  Gastric mucosa histopathological finding: normal histological structure of gastric mucosa; also recorded: normal histological structure of the stomach mucosa
  Ulcer Number Score: 0.50 ± 0.55 ^d
  Ulcer Severity Score: 0.33 ± 0.41 ^d

## O=C(O)COc1ccccc1C=NNC(=O)CNC(=O)c1ccccc1 [Compound 13a, 2-(2-((2-(Benzoylglycyl)hydrazineylidene)methyl)phenoxy)acetic acid]
other
  melting point: 210 to 211 °C
Ovine COX-1
  IC50: 8430 ± 120 nM
Human COX-2
  SI (COX-2 selectivity index): 36.65
  IC50: 230 ± 60 nM

## O=C(O)COc1ccc(Br)cc1C=NNC(=O)CNC(=O)c1ccccc1 [Compound 13b, 2-(2-((2-(Benzoylglycyl)hydrazineylidene)methyl)-4-bromophenoxy)acetic acid]
other
  melting point: 248 to 250 °C
Ovine COX-1
  IC50: 9930 ± 120 nM
Human COX-2
  SI (COX-2 selectivity index): 76.38
  IC50: 130 ± 60 nM

## NS(=O)(=O)c1ccc(-n2nc(C(F)(F)F)cc2-c2ccc(Br)cc2)cc1 [SC-558]
COX-2
  Selectivity for COX-2 over COX-1: 1900 fold

## O=C(O)COc1ccc(/C=C2\SC(N3N=C(c4ccc(Cl)cc4)CC3c3ccccc3)=NC2=O)cc1 (stereo not shown) [XIV]
COX-2; earlier work of the authors
  IC50: 60 nM

## Cc1ccc(-c2ncc(Cl)cc2-c2ccc(S(C)(=O)=O)cc2)cn1 [etoricoxib]
COX-2
  IC50: 5000 nM

## CS(=O)(=O)c1ccc(C2=C(c3ccccc3)C(=O)OC2)cc1 [rofecoxib]
COX-2
  IC50: 500 nM
